Assay results taken from publication PMC3502156, “Anti-plasmodial action of de novo-designed, cationic, lysine-branched, amphipathic, helical peptides” (Malaria Journal, 2012).
Where two headings read alike, the source gives them in different places. Starred links: 1 amine or outer side, 2 acyl side, 3 side chain; linkers in the order of their positions; H or OH if unused. Positions of bridges follow the written chain, without caps; N, C: chain ends. Non-standard residues stand in square brackets, D forms with d. Residues, ends and D or L forms follow the SMILES beside them. Chains are numbered I, II in the order given. X1 = O=C(/C(=C/c1ccccc1)N[*:1])[*:2]; X2 = O=C(C(=Cc1ccccc1)N[*:1])[*:2]

Columns and labels:
[1] = tested on: uninfected erythrocytes (URBC); test: Haemolysis assay, uninfected red cells; assay type: cell-based, human
Method: (§1) Selectivity of haemolysis by peptides for infected erythrocytes (PRBC) vs uninfected erythrocytes (URBC) was examined by incubating the test molecules with URBCs and PRBCs respectively in phosphate-buffered saline (PBS). Briefly, fresh RBCs were spin washed (1600 RPM; 5 min) three times in PBS and re-suspended in PBS at 2% haematocrit. A 100 μl suspension was added to 96-well plate containing the peptides at different concentrations. […] After incubation at 37°C for 3 hr, the samples were centrifuged and supernatant was used to determine the haemolytic activity measured in terms of haemoglobin release as monitored by […]. Triton-treated control samples were diluted 10-fold before reading absorbance. […] Percent haemolysis has been expressed with reference to 100% haemolysis value assigned to positive control (triton X 100 treated RBCs). To study haemolytic susceptibility of parasitized cells, URBCs were replaced with varying percentages (10% and 20%) of mixed stage parasitized cells. […] Haemolysis of parasitized erythrocytes was also monitored microscopically by examining the Giemsa-stained smears. Parasitaemia of ΔFd treated and untreated cultures were microscopically counted for ring, trophozoite and schizont stages respectively. Susceptibility of different stages was compared with corresponding untreated control cultures.

[2] = tested on: P. falciparum 3D7 (chloroquine-sensitive); test: microbe, parasite or virus in culture; assay type: cell-based, Plasmodium falciparum
[3] = tested on: P. falciparum Dd2 (CQ-resistant); test: microbe, parasite or virus in culture; assay type: cell-based, Plasmodium falciparum; conditions: for Resistance index IC50 Dd2/ IC50 3D7: IC50 CQ resistant strain/ IC50 CQ sensitive strain
Method: (§2) Chloroquine-sensitive (3D7) and CQ-resistant (Dd2 and INDO) strains of P. falciparum were maintained in continuous culture according to the method of Trager and Jensen with minor modifications. Cultures were maintained in fresh group O^+ve human erythrocytes suspended at 4% haematocrit in complete medium {16.2 g/L RPMI 1640 containing 25 mM HEPES, 11.11 mM glucose (Gibco), 0.2% sodium bicarbonate (Sigma), 0.5% Albumax I (Gibco), 45 μg/litre hypoxanthine (Sigma) and 50 μg/litre gentamicin (Gibco)} and incubated at 37°C under a gas mixture 5% O2, 5% CO2, and 90% N2. Every day, the spent medium was replaced by fresh complete medium to propagate the culture. […] Parasitaemia was monitored by microscopic examination of Giemsa-stained blood smears. Synchronized ring stage parasite was obtained by 5% sorbitol treatment. Trophozoites and schizont-stage parasites were enriched by using Percoll gradient.
(§3) Stock solutions of peptides and CQ were prepared in water (milli-Q grade) while artemisinin stock solution was in dimethyl sulphoxide (DMSO). All stocks were then diluted with culture medium to achieve the required drug concentrations. The concentration of peptide solution in water was based on A280 [ϵ (M^-1 cm^-1) ΔF (didehydrophenylalanine) 19,000, W (Tryptophan) 5,000)]. Thus ϵ280 were 62,000, 124,000, 124,000 and 248,000 for ΔFm, (ΔFm)2, ΔFd and ΔFq respectively. The concentration of FITC-peptides was based on A495 [ϵ(M^-1 cm^-1) FITC 77,000 for (ΔFm)2 with one FITC and 154,000 for ΔFd with two FITC per molecule]. Drugs and peptides solutions were placed in 96-well flat bottom tissue culture grade plates (Corning).
(§4) For drug screening, SYBR green I based fluorescence assay was used as described previously by Smilkstein et al.[30]. Sorbitol synchronized ring stage parasites (haematocrit: 2%, parasitaemia: 1%, 100 μl) under normal culture conditions were incubated in the absence or presence of increasing concentrations of peptides in water. CQ and artemisinin were used as positive controls. […] After 48 hr of incubation 100 μl of SYBR Green I buffer [0.2 μl of 10,000 X SYBR Green I (Invitrogen) per ml of lysis buffer {Tris (20 mM; pH 7.5), EDTA (5 mM), saponin (0.008%; wt/vol), and Triton X-100 (0.08%; vol/vol)}] was added to each well, mixed twice gently with multi-channel pipette and incubated in dark at 37 °C for 1 h. Fluorescence was measured with a Victor fluorescence multi-well plate reader (Perkin Elmer) with excitation and emission wavelength centred at 485 and 530 nm, respectively. Fluorescence counts for CQ (0.1 μM for 3D7, 1 μM for INDO) were subtracted from counts in each well. The fluorescence counts were plotted against the drug concentration and IC50 (the 50% inhibitory concentration) was determined by analysis of dose–response curves. Results of the above mentioned fluorescence-based assay were validated microscopically by examination of Giemsa-stained smears of peptide-treated parasite cultures. Statistical significance of relative potencies of peptides was determined by student’s T test.

[4] = tested on: P. falciparum 3D7 (chloroquine-sensitive); test: microbe, parasite or virus in culture; assay type: cell-based, Plasmodium falciparum; remark: listed apart in the source
Method: as §2, §3, §4

[5] = tested on: infected erythrocytes (PRBC); test: Haemolysis assay, parasitized red cells; assay type: cell-based, Plasmodium falciparum; conditions: up to 40 μM, 3 hr, A415
Method: as §1

[6] = tested on: Plasmodium-infected RBCs (PRBC); test: Fluorescence microscopy of FITC-peptide localization; assay type: cell-based, Plasmodium falciparum; conditions: 2-3 μM, 30 min, 37°C, complete medium
Method: For studying peptide localization, P. falciparum cultures were individually incubated with FITC-ΔFd (2 μM), FITC-(ΔFm)2 (2 μM) or FITC-Insulin (3 μM) a) alone and b) together with DAPI in complete medium at 37°C for 30 min and the cells were spin washed (1,600 RPM, 5 min) twice with 1 X PBS to reduce background fluorescence. The cells were smeared on a glass slide, and fluorescence was visualized by using the respective filter settings for FITC and DAPI.
For studying the selectivity and route of transport of ΔFd into the red cell-resident malaria parasite, URBC and PRBC were incubated with FITC-ΔFd (4 μM) in parallel sets at 4°C vs at room temperature (25°C) for specified times and spin washed (1,600 RPM, 2 min) with complete medium (3 X 200 μl). The cells were smeared on a glass slide and both bright field images and fluorescence images (using FITC filter) were captured at 100 X magnification using Nikon eclipse fluorescence microscope. The software Adobe Photoshop was used to overlay the fluorescence image on the bright field image.

[7] = 3D7 (chloroquine-sensitive, 48 h)
[8] = 2% haematocrit in PBS, 37°C, 3 hr, haemoglobin release A415, 100% = 0.4% Triton X-100, ± SD of three independent observations
[9] = ring stage synchronized, haematocrit 2%, parasitaemia 1%, 48 hr, SYBR Green I fluorescence, ± SD of three independent observations, read-out: IC50 P. falciparum 3D7

Compound	HC50 URBC ([1]; 3 h) [µM]	Hemolytic Selectivity index (HC50 URBC/ IC50 Pf 3D7) ([1]; 3 h)	IC50 ([3]; Dd2 (CQ-resistant, 48 h)) [nM]	IC50 [4, 7] [nM]	further results
CC(=O)NCC(=O)NC(=Cc1ccccc1)C(=O)N[C@@H](CCCNC(=N)N)C(=O)N[C@@H](CCCCN)C(=O)NC(=Cc1ccccc1)C(=O)N[C@@H](Cc1c[nH]cn1)C(=O)N[C@@H](CCCCN)C(=O)NC(=Cc1ccccc1)C(=O)N[C@@H](Cc1c[nH]c2ccccc12)C(=O)N[C@@H](C)C(=O)N[C@@H](C)C(=O)NCC(=O)NC(=Cc1ccccc1)C(=O)N[C@@H](CCCNC(=N)N)C(=O)N[C@@H](CCCCN)C(=O)NC(=Cc1ccccc1)C(=O)N[C@@H](Cc1c[nH]cn1)C(=O)N[C@@H](CCCCN)C(=O)NC(=Cc1ccccc1)C(=O)N[C@@H](Cc1c[nH]c2ccccc12)C(=O)N[C@@H](C)C(N)=O [(ΔFm)2] (Ac-G[X2]RK[X2]HK[X2]WAAG[X2]RK[X2]HK[X2]WA-NH2)	> 50	> 20	2500 ± 130	2400 ± 150	increment in potency at 96 hr (two cycles) vs 48 hr (one cycle) ([2]; P. falciparum 3D7, SYBR Green assay): 1.5 fold; Resistance index IC50 Dd2/ IC50 3D7 [3]: 1.04
CCN(CC)CCCC(C)Nc1ccnc2cc(Cl)ccc12 (stereo not drawn) [Chloroquine, reference compound]	–	–	–	–	IC50 ([2]; Plasmodium falciparum, 3D7, 48 h, read-out: IC50 P. falciparum 3D7): 40 nM; Resistance index IC50 Dd2/ IC50 3D7 [3]: 4; IC50 ([3]; Plasmodium falciparum, DD2, 48 h, read-out: IC50 P. falciparum Dd2): 160 nM
CC(C)C[C@H](NC(=O)[C@H](CCC(N)=O)NC(=O)[C@@H]1CCCN1C(=O)[C@H](CC(C)C)NC(=O)[C@H](CC(=O)O)NC(=O)[C@@H](NC(=O)[C@@H](NC(=O)[C@H](Cc1c[nH]cn1)NC(=O)[C@@H]1CCCN1C(=O)[C@H](CC(C)C)NC(=O)[C@@H]1CCCN1C(=O)[C@@H]1CCCN1C(=O)[C@H](C)NC(=O)[C@H](CO)NC(=O)[C@@H]1CCCN1C(=O)[C@H](CCCNC(=N)N)NC(=O)[C@@H](NC(=O)[C@H](C)NC(=O)CNC(=O)[C@H](CC(C)C)NC(=O)[C@@H]1CCCN1C(=O)[C@H](C)NC(=O)[C@H](CO)NC(=O)[C@H](Cc1c[nH]cn1)NC(=O)[C@H](CC(=O)O)NC(=O)[C@@H]1CCCN1C(=O)[C@@H]1CCCN1C(=O)[C@@H](N)CC(N)=O)[C@@H](C)O)C(C)C)C(C)C)C(=O)NCC(=O)N1CCC[C@H]1C(=O)O [E30, reference compound] (H-NPPDHSAPLGATRPSAPPLPHVVDLPQLGP-OH)	–	–	–	–	HC50 URBC [1, 8]: > 40 µM; haemolysis of infected red cells by control peptides [5]: not to show any haemolysis; IC50 [4, 9]: > 40000 nM
CC(=O)NCC(=O)N[C@@H](Cc1ccccc1)C(=O)N[C@@H](CCCNC(=N)N)C(=O)N[C@@H](CCCCN)C(=O)N[C@@H](Cc1ccccc1)C(=O)N[C@@H](Cc1c[nH]cn1)C(=O)N[C@@H](CCCCN)C(=O)N[C@@H](Cc1ccccc1)C(=O)N[C@@H](Cc1c[nH]c2ccccc12)C(=O)N[C@@H](C)C(=O)NCCCC[C@H](NC(=O)[C@H](C)NC(=O)[C@H](Cc1c[nH]c2ccccc12)NC(=O)[C@H](Cc1ccccc1)NC(=O)[C@H](CCCCN)NC(=O)[C@H](Cc1c[nH]cn1)NC(=O)[C@H](Cc1ccccc1)NC(=O)[C@H](CCCCN)NC(=O)[C@H](CCCNC(=N)N)NC(=O)[C@H](Cc1ccccc1)NC(=O)CNC(C)=O)C(N)=O [Fd] (I: Ac-GFRKFHKFWAK-NH2 / II: Ac-GFRKFHKFWA; amide I:11-II:C; N-terminus and C-terminus assumed)	> 50	> 33	–	1500 ± 80	–
CC(=O)NCC(=O)N[C@@H](Cc1ccccc1)C(=O)N[C@@H](CCCNC(=N)N)C(=O)N[C@@H](CCCCN)C(=O)N[C@@H](Cc1ccccc1)C(=O)N[C@@H](Cc1c[nH]cn1)C(=O)N[C@@H](CCCCN)C(=O)N[C@@H](Cc1ccccc1)C(=O)N[C@@H](Cc1c[nH]c2ccccc12)C(=O)N[C@@H](C)C(N)=O [Fm] (Ac-GFRKFHKFWA-NH2)	>100	–	> 100000	> 100000	–
C[C@H](NC(=O)[C@H](C)NC(=O)[C@H](CCCCN)NC(=O)[C@H](Cc1c[nH]cn1)NC(=O)[C@@H]1CCCN1C(=O)[C@H](CCC(=O)O)NC(=O)[C@@H](N)CCC(=O)O)C(=O)N[C@@H](CO)C(=O)N[C@@H](C)C(=O)N[C@@H](CCC(=O)O)C(=O)NCC(=O)N[C@@H](CCCCN)C(=O)N[C@@H](CCCCN)C(=O)O [Prochitinase, reference compound] (H-EEPHKAASAEGKK-OH)	> 40	–	–	> 40000	–
CC(=O)NCC(=O)NC(=Cc1ccccc1)C(=O)N[C@@H](CCCNC(=N)N)C(=O)N[C@@H](CCCCN)C(=O)NC(=Cc1ccccc1)C(=O)N[C@@H](Cc1c[nH]cn1)C(=O)N[C@@H](CCCCN)C(=O)NC(=Cc1ccccc1)C(=O)N[C@@H](Cc1c[nH]c2ccccc12)C(=O)N[C@@H](C)C(N)=O [ΔFm] (Ac-G[X2]RK[X2]HK[X2]WA-NH2)	>100	–	> 100000	> 100000	–
FITC-insulin: FITC-Insulin (Sigma), control for uptake	–	–	–	–	uptake of FITC-labelled peptide by parasitized cells [6]: no accumulation
I: Ac-G[X1]RK[X1]HK[X1]WAKK-NH2 / II: Ac-G[X1]RK[X1]HK[X1]WAK / III: Ac-G[X1]RK[X1]HK[X1]WA / IV: Ac-G[X1]RK[X1]HK[X1]WA (amide I:11-IV:C, I:12-II:C, II:11-III:C; N-terminus and C-terminus assumed) [ΔFq]	2.5 ± 0.13	10	–	250 ± 20	–
Insulin: bovine insulin (Sigma), control peptide [reference compound]	–	–	–	–	HC50 URBC [1, 8]: > 40 µM; haemolysis of infected red cells by control peptides [5]: not to show any haemolysis; IC50 [4, 9]: > 40000 nM
